Test results as given in patent US9468670B2, “Melatonin-based treatment and diagnosis of bile duct disease” (Texas A&M University System, priority 2011, dated 2016).
Marks after values point to notes of the source that are not given here.

Assays:
[1] = Liver weight, body weight and liver to body weight ratio in normal and BDL rats; assay type: in vivo, rat; details: tap water containing melatonin (20 mg/L) for 1 week
Experimental: (§1) Male 344 Fischer rats (150-175 g) were purchased from Charles River (Wilmington, Mass.) and kept in a temperature-controlled environment (22° C.) with 12:12 hr light/dark cycles. Animals were fed ad libitum and had free access to food and drinking water. […] Before each surgical procedure, animals were anesthetized with sodium pentobarbital (50 mg/kg BW, IP). All animal experiments were performed in accordance with a protocol approved by the Scott and White and Texas A&M Health Science Center Institutional Animal Care and Use Committee and conform to the Guide for the Care and Use of Laboratory Animals published by the US National Institutes of Health (NIH Publication No. 85-23, revised 1996). In all animals, wet liver weight, body weight, wet liver weight to body weight ratio, and an index of liver cell growth including cholangiocytes were measured ([…] et al., 1988).

[2] = Melatonin serum levels by ELISA in normal and BDL rats; assay type: in vivo; details: male, Fischer 344, rat, oral, 20 mg/L in drinking water, tap water containing melatonin (20 mg/L) for 1 week
Experimental: Male 344 Fischer rats (150-175 g) were purchased from Charles River (Wilmington, Mass.) and kept in a temperature-controlled environment (22° C.) with 12:12 hr light/dark cycles. Animals were fed ad libitum and had free access to food and drinking water. The studies were performed in normal rats, and in rats that immediately after bile duct ligation (BDL, for collection of serum, liver tissues and cells) (Alpini et al., 1988) or bile duct incannulation (BDI, for bile collection) (Alpini et al., 1988) had ad libitum access to tap water or tap water containing melatonin (20 mg/L in drinking water that corresponds to approximately an intake of melatonin of 2 mg/g BW per day per rat) (Anisimov et al., 2003) for 1 week. Before each surgical procedure, animals were anesthetized with sodium pentobarbital (50 mg/kg BW, IP).

[3] = Serum transaminases (SGPT, SGOT) and total bilirubin in normal and BDL rats; assay type: in vivo, rat; details: tap water containing melatonin (20 mg/L) for 1 week
Experimental: as §1, with “1988). In the selected groups of animals, the serum levels of the transaminases, serum glutamate pyruvate transaminases (SGPT) and serum glutamic oxaloacetic transaminase (SGOT) and total bilirubin were evaluated using a Dimension RxL Max Integrated Chemistry system (Dade Behring Inc., Deerfield Ill.) by the Chemistry Department, Scott & White. Melatonin serum levels were measured by commercially available ELISA kits according to the instructions provided by the vendor (Genway, San Diego, Calif.).” for “1988).”

AANAT = molecular target: T1, AANAT (Rattus norvegicus, UniProt Q64666); assay: Melatonin levels in serum and cholangiocyte supernatant (ELISA) of Morpholino-treated rats; assay type: in vivo; details: normal rats
T1 construct: the expression of AANAT in liver sections and cholangiocytes from the selected groups of animals; from tissue; host or cells: Male Fischer 344 rats: liver sections, total liver, isolated cholangiocytes, pineal gland, small intestine, serum
Experimental: In separate experiments, normal rats treated with Vivo-Morpholino sequences of AANAT (5'-[…] NO:1), to reduce the biliary expression of AANAT) or Morpholino mismatched (5'-[…] NO:2)) (Gene Tools LCC) (1 mg/Kg BW/day) for 1 week via an implanted portal vein catheter. Serum, liver tissue, cholangiocytes, kidney, spleen, small intestine, stomach and heart were collected. Since our goal was to knock-down AANAT expression in the liver without inhibiting AANAT expression in other organs, we used a lower dose (1 mg/Kg/day) of Vivo-Morpholino than that described in the original study (3.0 mg/kg/day (Arora et al., 2002). This approach minimizes the amount of Vivo-Morpholino that circulates outside of the liver after slow infusion into the portal vein. See below for the surgical procedure for the implantation of the portal vein catheter by which AANAT Vivo-Morpholino or Morpholino mismatched was administered. Melatonin levels in serum and medium of primary cultures of isolated cholangiocytes were determined by ELISA kits (Genway, San Diego, Calif.). Supernatants were obtained from cholangiocytes (1×10^7 cells/ml) that were incubated for 6 hours at 37° C. (Glaser et al., 2008).

T1 sequence (Q64666 whole entry): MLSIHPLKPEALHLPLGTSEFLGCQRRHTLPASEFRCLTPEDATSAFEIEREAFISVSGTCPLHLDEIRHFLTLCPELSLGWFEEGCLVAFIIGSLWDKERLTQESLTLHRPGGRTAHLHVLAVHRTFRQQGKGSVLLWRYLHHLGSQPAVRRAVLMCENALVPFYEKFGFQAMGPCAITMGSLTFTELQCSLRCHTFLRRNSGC

Compound	Body weight ([1]; BDL rats)	Liver to body weight ratio ([1]; BDL rats)	Liver weight ([1]; BDL rats)	Body weight ([1]; normal rats)	concentration at 1 week ([2]; BDL rats)	concentration at 1 week ([2]; normal rats)	SGOT ([3]; BDL rats)	SGPT ([3]; BDL rats)	Total bilirubin ([3]; BDL rats)	SGOT ([3]; normal rats)	SGPT ([3]; normal rats)	Total bilirubin ([3]; normal rats)	Melatonin supernatant (AANAT; cholangiocyte supernatant, 6 hours at 37° C., 1 mg/Kg BW/day for 1 week)	Melatonin serum (AANAT; 1 mg/Kg BW/day for 1 week via portal vein catheter)
COc1ccc2[nH]cc(CCNC(C)=O)c2c1 [melatonin]	150.1 ± 7.9 gm	4.5 ± 0.1	6.7 ± 0.1 gm	206.6 ± 3.9 gm	0.165 ± 0.0668 ng/mL	0.14 ± 0.0127 ng/mL	585.0 ± 162.4 Units/L	210.8 ± 45.9 Units/L	7.3 ± 1.9 mg/L	143.0 ± 36.0 Units/L	69.4 ± 45.9 Units/L	<0.1 mg/L	–	–
AANAT Vivo-Morpholino: Vivo-Morpholino sequence of AANAT 5′-GTTCCCCAGCTTTGGAAGTGGTCCC (SEQ ID NO:1), to reduce the biliary expression of AANAT (all phosphorodiamidate morpholino (PMO); Vivo-Morpholino delivery moiety attached, position not given here, further chemistry not fully specified)	–	–	–	–	–	–	–	–	–	–	–	–	3.2 ± 0.2^a pg/ml	58.4 ± 8.7^a pg/ml
